A short description of series [1]: XTT proliferation (cytotoxicity) assay, normal fibroblasts. The format is cell-based, mouse. Particulars: mouse, NIH-3T3 normal mouse fibroblasts, read-out: Lethal Concentration (LC50). Here is the method:
(§1) The CL1 human prostate carcinoma (PC) cell line is an androgen-independent (AI) subclone of LNCaP cell line, which was generated by culturing androgen-dependent (AD) LNCaP cells in charcoal-stripped, […], as described (Patel et al. 2000). 22RV1 human PC cells are AI sub-clones of the AD prostatic adenocarcinoma CWR22 xenograft (Sramkoski et al. 1999). CL1 and 22RV1 (ATCC, USA) were grown in RPMI-1640 supplemented with 10% FCS (Biological Industries, Beit Haemek, Israel). PC3 and DU145 are androgen-insensitive (AI) (non-responsive), invasive human prostate cancer cell lines. NIH-3T3 mouse fibroblast cell lines (ATCC, USA) were grown in DMEM supplemented with 10% BS. Murine Lewis lung carcinoma (LLC) cell lines were also grown in DMEM medium supplemented with 10% fetal calf serum and antibiotics under the same conditions as above.
(§2) The anticancer activity of the diastereomers 1, 5 and 11-16, 36-39, 42 and 44 was examined against human CL1 prostate cancer, murine LLC (Lewis lung carcinoma), DU 145 and PC3 cell lines. The cell selectivity of the diastereomeric peptides was also studied by examining their effect on NIH-3T3 normal mouse fibroblasts cell line.
(§3) A 96-well plate (Falcon) was used for the XTT proliferation assay. Cancer cells were grown for 24 hours (day 1) in RPMI-1640 medium ([…] cells/100 μl for LLC, CL1, 22RVI, DU 145 and PC3, respectively) supplemented with 10% fetal calf serum and antibiotics, at 37° C., in humidified atmosphere at 5% CO2 and 95% air, resulting in growth medium pH of 7.4. NIH-3T3 fibroblast cells (1×10^4 cells/100 μl) were grown in DMEM medium supplemented with 10% bovine calf serum and antibiotics under the same conditions as described above for the cancerous cells. Wells in the last two rows served as blanks (medium only, for measuring the background color of the medium) and 100% survival controls (cells and medium only without treatment), respectively.
(§4) In day 2, the peptides were dissolved in sterile PBS to a concentration of 200 μM (or 500 μM). The medium in the assay wells was replaced with 100 μl serum free medium. For the assays at pH 6, the medium was initially concentrated (×5 or ×10) and then diluted with double distilled water and addition of sodium carbonate. Before reaching the correct dilution, the medium was adjusted to pH 6 and then more water was added to reach the final dilution. The cells were grown in physiological pH, and the acidic pH was used only during the 24 hours incubation with the peptides. A sign for the correct acidity was a light yellow color of the medium. In line A of the plate, 160 μl of serum free medium was added, if the initial peptide concentration was 500 μM.
(§5) Peptide solutions, 100 μl (or 40 μl) were added to each assay well in line A, such that the final concentration of the peptide was […] and the volume 200 μl. The medium in the wells was mixed with multichannel pipette 5 times and 100 μl of it were transferred to the next row of wells (line B), to give a peptide concentration of 50 μM. The double dilution of the peptides continued downstream the plate in the same manner. The plates were then incubated for 24 h.
(§6) In day 3, XTT reaction solution was prepared by adding to 100 μl aliquots of activation solution (sodium 3′-[1-(phenyl-aminocarbonyl)-3,4-tetrazolium]-bis(4-methoxy-6-nitro) benzene sulfonic acid hydrate and N-methyl dibenzopyrazine methyl sulfate; mixed in a proportion of 50:1) (protected from light and kept in −20° C.), the substrate. 50 μl of XTT reaction solution were added to each well and the plates were incubated for 2 hours (37° C. and 5% CO2+95% air. In cases the incubation was not enough for the creation of the color, it was extended for up to 24 hours). The optical density was read at wavelength of 450 nm in an ELISA plate reader. Cell viability was determined relative to the control and final results were recorded. The results were confirmed using replications in at least three independent experiments. […]

Series [2] has as its system DU145 human prostate cancer cell line. In words: XTT proliferation (cytotoxicity) assay, DU145. The format is cell-based. Here is the method:
as §1, §2, §3, §4, §5, §6

Series [3] has as its system 22RV1 human PC cells. In words: XTT proliferation (cytotoxicity) assay, 22RV1. The format is cell-based. Here is the method: as §1, §3, §4, §5
In day 3, XTT reaction solution was prepared by adding to 100 μl aliquots of activation solution (sodium 3′-[1-(phenyl-aminocarbonyl)-3,4-tetrazolium]-bis(4-methoxy-6-nitro) benzene sulfonic acid hydrate and N-methyl dibenzopyrazine methyl sulfate; mixed in a proportion of 50:1) (protected from light and kept in −20° C.), the substrate. 50 μl of XTT reaction solution were added to each well and the plates were incubated for 2 hours (37° C. and 5% CO2+95% air. In cases the incubation was not enough for the creation of the color, it was extended for up to 24 hours). The optical density was read at wavelength of 450 nm in an ELISA plate reader. Cell viability was determined relative to the control and final results were recorded. The results were confirmed using replications in at least three independent experiments. The LC50 for each peptide was obtained from the curve of cell viability versus concentration of peptide and taken from the concentration at which cell viability was 50%. The data shown in Table 1 are for only one experiment, but representative of all replications.

The test system of series [4] is CL1 human prostate carcinoma cell line. The series is described as follows: XTT proliferation (cytotoxicity) assay, CL1. The format is cell-based. Here is the method:
as §1, §2, §3, §4, §5, §6

The test system of series [5] is PC3 human prostate cancer cell line. In words: XTT proliferation (cytotoxicity) assay, PC3. It counts as cell-based. Particulars: PC3, pH 7.4, 24 h. Here is the method:
as §1, §2
A 96-well plate (Falcon) was used for the XTT proliferation assay. Cancer cells were grown for 24 hours (day 1) in RPMI-1640 medium (5×10^3, 7×10^3, 1×10^4 and 7×10^3 cells/100 μl for LLC, CL1, 22RVI, DU 145 and PC3, respectively) supplemented with 10% fetal calf serum and antibiotics, at 37° C., in humidified atmosphere at 5% CO2 and 95% air, resulting in growth medium pH of 7.4. […]
In day 3, XTT reaction solution was prepared by adding to 100 μl aliquots of activation solution (sodium 3′-[1-(phenyl-aminocarbonyl)-3,4-tetrazolium]-bis(4-methoxy-6-nitro) benzene sulfonic acid hydrate and N-methyl dibenzopyrazine methyl sulfate; mixed in a proportion of 50:1) (protected from light and kept in −20° C.), the substrate. […] The optical density was read at wavelength of 450 nm in an ELISA plate reader. Cell viability was determined relative to the control and final results were recorded. […]

The nature of series [6]: Acute toxicity test in mice (intravenous). Particulars: for mortality: mice. The format is in vivo. Here is the method: Acute toxicity of peptides 1, 13 and 16 was examined by intravenously injecting mice (n=3), each with one dose per day for 2 days of 0.5 ml solution containing peptides 1, 13 or 16 at 3, 9, 15, 20 and 30 mg/kg of body weight.
A week after injecting the peptides, blood samples were taken from the survived mice. […] Thus, the peptides 13 and 16 of the invention are not toxic even when administered at concentrations considerably higher than those necessary for their anticancer activity.

In series [7] the test system is Murine Lewis lung carcinoma (LLC) cell line. The series is described as follows: XTT proliferation (cytotoxicity) assay, LLC. The format is cell-based. Here is the method: as §1, §2, §3, §4, §5, §6
Series [8] deals with AI CL1 human PC cells xenograft. In words: Inhibition of tumor growth in human prostate cancer xenografts, CL1. It counts as in vivo, nude male mice. Conditions: CL1 xenograft, 1 mg/kg intratumorally, 9 doses. Here is the method: (§7) (i) Inhibition of tumor growth in human prostate cancer xenografts. Subcutaneouse (s.c.) implantation of human PC cells in mice was done as previously described in Gavish et al. (Gavish et al. 2002). Briefly, 0.1 ml AI CL1 or 22RV1 human PC cells (5×10^6 cells) in Matrigel were inoculated s.c. into the dorsal side of five to six week-old nude male mice weighing 20-25 g (Harlen Co., Israel). Two weeks after cell implantation, when the tumors diameter reached ≧5 mm (denoted as day 1), the diastereomer 13 and its all L-amino acid analog peptide (at 1 mg/kg, 0.1 mM), or vehicle (PBS, pH=7.4) were injected intratumorally (dosing volume of 2.5 ml/kg) three times a week for a total of 9 doses. Tumor size was measured by a caliper and recorded twice a week during a period of 28 days. Mice were weighed and tumor weight (mg) was estimated by using the formula of length×width×depth×0.52 in mm^3, assuming the specific gravity to be 1. At the end of the treatment, the mice were killed, and the tumors were removed, photographed, and weighed. The animal experimentation was conducted according to the rules of the Institutional Animal Care and Use Committee.

Series [9] can be described thus: Interaction with Matrigel matrix, analysed by RP-HPLC and mass spectroscopy. Conditions: mixed with Matrigel matrix for one hour. The format is in vitro ADME.
The test system of series [10] is 22RV1 human PC cells xenograft. In words: Inhibition of tumor growth in human prostate cancer xenografts, 22RV1. It counts as in vivo, nude male mice. Conditions: 22RV1 xenograft, 1 mg/kg intratumorally, 9 doses. Here is the method: as §7
Serum PSA levels. Four weeks after the first treatment, blood was withdrawn from the 22RV1-inoculated mice in order to determine the level of prostate specific antigen (PSA). The blood samples were taken directly to heparin containing tubes, centrifuged, and the supernatants were stored at −20° C. The CanAg PSA EIA kit (CanAg Diagnostics) was used to determine the total PSA in the mice plasma (Gavish et al., 2002). Tumor weight and PSA levels, represented as the mean±SE, were calculated from the raw data and then subjected to Student's t test. A value of P<0.05 was considered as statistically significant.

Series [11] deals with NIH-3T3 normal mouse fibroblasts cell line. In words: XTT proliferation (cytotoxicity) assay, normal fibroblasts. The format is cell-based. Particulars: NIH3T3, pH 7.4, 24 h. Here is the method:
as §1, §2, §3, §4, §5, §6

The mark [12] stands for this setting: i.v., 3 mg/kg, one dose per day for 2 days.
Where [13] appears, read: i.v., 9 mg/kg, one dose per day for 2 days.
Setting [14] is: i.v., 15 mg/kg, one dose per day for 2 days.
Where [15] appears, read: i.v., 20 mg/kg, one dose per day for 2 days.

Values after ≈ are worked out from the molar mass of the structure shown. Read-outs that look alike come from different tables or passages of the source. Square brackets hold non-standard residues; d marks the D form. Ends that are not written are not given here. Peptide text beside a SMILES is read from it.

Consider `CC(C)C[C@H](NC(=O)[C@H](CC(C)C)NC(=O)[C@@H](CCCCN)NC(=O)[C@H](CC(C)C)NC(=O)[C@H](CC(C)C)NC(=O)[C@H](CCCCN)NC(=O)[C@@H](CCCCN)NC(=O)[C@@H](CC(C)C)NC(=O)[C@H](CC(C)C)NC(=O)[C@@H](CCCCN)NC(=O)[C@H](CCCCN)NC(=O)[C@H](CC(C)C)NC(=O)[C@@H](CC(C)C)NC(=O)[C@H](CCCCN)NC(=O)[C@@H](N)CC(C)C)C(N)=O` [Peptide 1, reference compound] (H-LK[dL]LK[dK]L[dL][dK]KLL[dK]LL-NH2), for which the CC50 at 24 h in series [1] (NIH3T3, pH 6, 24 h) amounted to 25 µg/mL (≈ 13.9 µM); in series [1] (NIH3T3, pH 7.4, 24 h) it was 50 µg/mL (≈ 27.7 µM). Also, the “Lethal Concentration (LC50)” value in [2] (DU145, pH 6, 24 h) worked out at 4.7 µg/mL; in [2] (DU145, pH 7.4, 24 h), 4.7 µg/mL; in series [3] (22RV1, pH 6, 24 h) it was 25 µg/mL; in series [3] (22RV1, pH 7.4, 24 h) it was 12.5 µg/mL; in [4] (CL1, pH 6, 24 h) it was 9.3 µg/mL; in series [4] (CL1, pH 7.4, 24 h), 6.25 µg/mL. Also, the “Lethal Concentration (LC50)” value in [5] was 6.2 µg/mL; in series [7] (pH 6, 24 h), 12.5 µg/mL; in [7] (pH 7.4, 24 h) it was 12.5 µg/mL. Further, the mortality was 100% in series [6] (concentrations considerably higher than those necessary for anticancer activity); “No mortality” in series [6] (setting [12]); “No mortality” in series [6] (setting [13]); 100% in series [6] (setting [14]); 100% in [6] (setting [15]).

For the compound “LKLLHKLLKHLLKLL-NH2 [all L-amino acid analog peptide, reference compound]”, the tumor weight result in series [8] and in series [10] was “inactive” throughout. In addition, the “activity preserved upon interaction with the Matrigel matrix” value in [9] is “fully inactivated”.

As for `CC(C)C[C@H](NC(=O)[C@H](CC(C)C)NC(=O)[C@@H](Cc1c[nH]cn1)NC(=O)[C@H](CC(C)C)NC(=O)[C@H](CC(C)C)NC(=O)[C@H](Cc1c[nH]cn1)NC(=O)[C@@H](Cc1c[nH]cn1)NC(=O)[C@@H](CC(C)C)NC(=O)[C@H](CC(C)C)NC(=O)[C@@H](CCCCN)NC(=O)[C@H](Cc1c[nH]cn1)NC(=O)[C@H](CC(C)C)NC(=O)[C@@H](CC(C)C)NC(=O)[C@H](Cc1c[nH]cn1)NC(=O)[C@@H](N)CC(C)C)C(N)=O` [Peptide 16] (H-LH[dL]LH[dK]L[dL][dH]HLL[dH]LL-NH2), the “Lethal Concentration (LC50)” value came to 100 µg/mL in series [11]; 12.5 µg/mL in series [3] (22RV1, pH 6, 24 h); 12.5 µg/mL in series [4] (CL1, pH 7.4, 24 h); 50 µg/mL in [7] (pH 7.4, 24 h). Moreover, in series [1] (NIH3T3, pH 6, 24 h), the CC50 at 24 h amounted to 25 µg/mL (≈ 13.5 µM). In addition, in [4] (CL1 vs NIH-3T3 at the same pH), the “active concentration lower than against NIH-3T3” value is “at least two-fold lower”. In addition, the mortality entry was “No mortality” in series [6] (setting [12]); “No mortality” in series [6] (setting [13]); “no mortality” in [6] (setting [14]); “no mortality” in series [6] (setting [15]); “No mortality” in series [6] (i.v., 30 mg/kg, one dose per day for 2 days). In [6] (survived mice, a week after injection), the “blood differential and biochemistry tests” value was “in the range of normal values”.

Source of the values: US20090305954A1, “HISTIDINE-CONTAINING DIASTEREOMERIC PEPTIDES AND USES THEREOF” (Yeda Research and Development Co. Ltd., priority 2005, published 2009).
